Drawing on patent publication US10543212B2, “Substituted amines for treating cardiac diseases” (Cardurion Pharmaceuticals, LLC, priority 2017, dated 2020), this text covers IC50 for 25 compounds.

By IC50 is commonly meant the concentration that gives 50% inhibition. Lower therefore signals greater potency.

The target of one experiment is T1, Full-length, GST-tagged, human CaMKIIδ (Homo sapiens, UniProt Q13557).
T1 construct: Full-Length, Glutathione-S-Transferase(GST)-Tagged, Human CaMKIIδ was purchased from Carna Biosciences; purchased Carna Biosciences 02-111
T1 sequence (Q13557 1-478 isoform Q13557-12): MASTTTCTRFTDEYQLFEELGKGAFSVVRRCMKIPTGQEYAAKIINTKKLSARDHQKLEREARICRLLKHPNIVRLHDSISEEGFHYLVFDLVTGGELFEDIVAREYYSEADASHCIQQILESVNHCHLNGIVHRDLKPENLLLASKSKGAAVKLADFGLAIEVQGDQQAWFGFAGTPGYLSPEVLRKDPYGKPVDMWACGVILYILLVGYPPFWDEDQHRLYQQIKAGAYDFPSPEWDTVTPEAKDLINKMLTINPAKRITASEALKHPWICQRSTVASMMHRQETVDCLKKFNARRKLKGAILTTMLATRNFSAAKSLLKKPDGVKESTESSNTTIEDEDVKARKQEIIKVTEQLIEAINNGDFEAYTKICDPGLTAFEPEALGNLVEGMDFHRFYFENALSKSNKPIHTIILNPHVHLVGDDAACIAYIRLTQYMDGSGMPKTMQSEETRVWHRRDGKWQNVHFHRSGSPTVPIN
The experiment can be described thus: CaMKIIδ binding assay (TR-FRET with BODIPY-labeled probe ligand). To be noted: CaMKIIδ binding assay, results of Table 2. In short, it runs like this: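 TR-FRET probe-displacement binding: 0.5 nM GST-CaMKIIδ with 10 μg/mL calmodulin, 1 mM CaCl2, 0.21 nM Tb-anti-GST Ab and 300 nM BODIPY probe in HEPES pH 7.6 buffer. Eight-point 4-fold dilutions, 1 hr at room temperature. IC50 from logistic fit; 100% inhibition defined by 3 μM parent compound.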
(Time-resolved FRET reads energy transfer from a long-lived donor to a nearby acceptor.)
`COc1cc2c(cc1Nc1ncc(-c3ccc(Cl)c(O[C@@H](C)Cn4cnnn4)c3)cn1)N(C(=O)CN1CCOCC1)CC2` [Example 498, (S)-1-(6-((5-(3-((1-(1H-tetrazol-1-yl)propan-2-yl)oxy)-4-chlorophenyl)pyrimidin-2-yl)amino)-5-methoxyindolin-1-yl)-2-morpholinoethan-1-one] gave an IC50 of at least 100 nM.
Same read-out and setting: the figure for “(S)-5-(3-((1-(1H-tetrazol-1-yl)propan-2-yl)oxy)-4-chlorophenyl)-N-(5-(piperidin-4-(trifluoromethoxy)phenyl)pyrimidin-2-amine [Example 532]” is below 10 nM; for `COC1CCCCC1N1CCC(n2cc(Nc3ncc(-c4ccc(Cl)c(O[C@@H](C)Cn5cnnn5)c4)cn3)c(C(F)(F)F)n2)CC1` (stereo partly drawn) [Example 554, 5-(3-(((S)-1-(1H-tetrazol-1-yl)propan-2-yl)oxy)-4-chlorophenyl)-N-(1-(1-(2-methoxycyclohexyl)piperidin-4-yl)-3-(trifluoromethyl)-1H-pyrazol-4-yl)pyrimidin-2-amine] it is below 10 nM; for `C[C@@H](Cn1cnnn1)Oc1cc(-c2cnc(Nc3cc4c(cc3Cl)CCNCC4)nc2)ccc1C#N` [Example 527, (S)-2-((1-(1H-tetrazol-1-yl)propan-2-yl)oxy)-4-(2-((8-chloro-2,3,4,5-tetrahydro-1H-benzo[d]azepin-7-yl)amino)pyrimidin-5-yl)benzonitrile] it is below 10 nM.
As for `COc1ccc(C(=O)N2CCCN(C3COC3)CC2)cc1Nc1ncc(-c2ccc(Cl)c(O[C@@H](C)Cn3cnnn3)c2)cn1` [Example 573, (S)-(3-((5-(3-((1-(1H-tetrazol-1-yl)propan-2-yl)oxy)-4-chlorophenyl)pyrimidin-2-yl)amino)-4-methoxyphenyl) (4-(oxetan-3-yl)-1,4-diazepan-1-yl)methanone], the IC50 is below 10 nM.
`C[C@@H](Cn1cnnn1)Oc1cc(-c2cnc(Nc3cn(C4CCN(C5CCOCC5)CC4)nc3C3CC3)nc2)ccc1Cl` [Example 545, (S)-5-(3-((1-(1H-tetrazol-1-yl)propan-2-yl)oxy)-4-chlorophenyl)-N-(3-cyclopropyl-1-(1-(tetrahydro-2H-pyran-4-yl)piperidin-4-yl)-1H-pyrazol-4-yl)pyrimidin-2-amine]: the IC50 is below 10 nM.
Take `C[C@@H](Cn1cnnn1)Oc1cc(-c2cnc(Nc3cc4c(cc3C3CC3)CCN(C3COC3)C4)nc2)ccc1C#N` [Example 524, (S)-2-((1-(1H-tetrazol-1-yl)propan-2-yl)oxy)-4-(2-((6-cyclopropyl-2-(oxetan-3-yl)-1,2,3,4-tetrahydroisoquinolin-7-yl)amino)pyrimidin-5-yl)benzonitrile]: the IC50 lay within 10 to 100 nM.
`COc1cc2c(cc1Nc1ncc(-c3ccc(Cl)c(O[C@@H](C)Cn4cnnn4)c3)cn1)CN(C(=O)CN(C)C)CC2` [Example 464, (S)-1-(7-((5-(3-((1-(1H-tetrazol-1-yl)propan-2-yl)oxy)-4-chlorophenyl)pyrimidin-2-yl)amino)-6-methoxy-3,4-dihydroisoquinolin-2(1H)-yl)-2-(dimethylamino)ethan-1-one] registered an IC50 below 10 nM.
Turning to `COc1ccc(N2CCN(C3CCOCC3)CC2)cc1Nc1ncc(-c2ccc(Cl)c(O[C@@H](C)Cn3cnnn3)c2)cn1` [Example 582, (S)-5-(3-((1-(1H-tetrazol-1-yl)propan-2-yl)oxy)-4-chlorophenyl)-N-(2-methoxy-5-(4-(tetrahydro-2H-pyran-4-yl)piperazin-1-yl)phenyl)pyrimidin-2-amine], the IC50 is below 10 nM.
In the case of `COc1cc(C2CCCNC2)ccc1Nc1ncc(-c2ccc(Cl)c(O[C@@H](C)Cn3cnnn3)c2)cn1` (stereo partly drawn) [Example 473, 5-(3-(((S)-1-(1H-tetrazol-1-yl)propan-2-yl)oxy)-4-chlorophenyl)-N-(2-methoxy-4-(piperidin-3-yl)phenyl)pyrimidin-2-amine], the half-inhibitory concentration (IC50) was below 10 nM.
Same read-out and setting: the figure for `Cc1cc(N2CCC(N3CCOCC3)CC2)ccc1Nc1ncc(-c2ccc(Cl)c(O[C@@H](C)Cn3cnnn3)c2)cn1` [Example 453, (S)-5-(3-((1-(1H-tetrazol-1-yl)propan-2-yl)oxy)-4-chlorophenyl)-N-(2-methyl-4-(4-morpholinopiperidin-1-yl)phenyl)pyrimidin-2-amine] is below 10 nM.

Staying with this experiment, now noted: CaMKIIδ binding assay; activity class per Table 2.
On to `C[C@@H](Cn1cnnn1)Oc1cc(-c2cnc(Nc3cn([C@H]4C[C@H](N5CCOCC5)C4)nc3OCC(F)(F)F)nc2)ccc1Cl` [Example 943, 5-(3-(((S)-1-(1H-tetrazol-1-yl)propan-2-yl)oxy)-4-chlorophenyl)-N-(1-(trans-3-morpholinocyclobutyl)-3-(2,2,2-trifluoroethoxy)-1H-pyrazol-4-yl)pyrimidin-2-amine], for which the 50% inhibitory concentration (IC50) is below 10 nM.
With `C[C@@H](Cn1cnnn1)Oc1cc(-c2cnc(Nc3cn(C4CC5(CNC5)C4)nc3OCC(F)(F)F)nc2)ccc1C(F)F` [Example 949, (S)-5-(3-((1-(1H-tetrazol-1-yl)propan-2-yl)oxy)-4-(difluoromethyl)phenyl)-N-(1-(2-azaspiro[3.3]heptan-6-yl)-3-(2,2,2-trifluoroethoxy)-1H-pyrazol-4-yl)pyrimidin-2-amine], the IC50 was below 10 nM.

The same experiment, now with this note: Table 2; CaMKIIδ binding assay, activity given as class A/B/C.
The compound `CCn1ncc(Nc2ncc(-c3ccc(Cl)c(O[C@@H](C)Cn4cnnn4)c3)cn2)c1C(=O)N1CCOCC1` [Example 865, (S)-(4-((5-(3-((1-(1H-tetrazol-1-yl)propan-2-yl)oxy)-4-chlorophenyl)pyrimidin-2-yl)amino)-1-ethyl-1H-pyrazol-5-yl)(morpholino)methanone] registered an IC50 of at least 100 nM.
On the same count and under the same terms, for `C[C@@H](Cn1cnnn1)Oc1cc(-c2cnc(Nc3cn(C4CC5(C4)CN(C4COC4)C5)nc3OCC(F)(F)F)nc2)ccc1Cl` [Example 854, (S)-5-(3-((1-(1H-tetrazol-1-yl)propan-2-yl)oxy)-4-chlorophenyl)-N-(1-(2-(oxetan-3-yl)-2-azaspiro[3.3]heptan-6-yl)-3-(2,2,2-trifluoroethoxy)-1H-pyrazol-4-yl)pyrimidin-2-amine] the value was below 10 nM; for `C[C@@H](Cn1cnnn1)Oc1cc(-c2cnc(Nc3cn(CC(C)(C)O)nc3OCC(F)(F)F)nc2)ccc1Cl` [Example 816, (S)-1-(4-((5-(3-((1-(1H-tetrazol-1-yl)propan-2-yl)oxy)-4-chlorophenyl)pyrimidin-2-yl)amino)-3-(2,2,2-trifluoroethoxy)-1H-pyrazol-1-yl)-2-methylpropan-2-ol], below 10 nM.
As to `C[C@@H](Cn1cnnn1)Oc1cc(-c2cnc(Nc3cn([C@H]4CC[C@H](N5CCOCC5)CC4)nc3OCC(F)F)nc2)ccc1F` [Example 835, 5-(3-(((S)-1-(1H-tetrazol-1-yl)propan-2-yl)oxy)-4-fluorophenyl)-N-(3-(2,2-difluoroethoxy)-1-(trans-4-morpholinocyclohexyl)-1H-pyrazol-4-yl)pyrimidin-2-amine], the 50% inhibitory concentration (IC50) is below 10 nM.
In turn, `C[C@@H](Cn1cnnn1)Oc1cc(-c2cnc(Nc3cn([C@H]4CC[C@@H](N5CCOCC5)CC4)nc3C(F)(F)F)nc2)ccc1F` [Example 807, 5-(3-(((S)-1-(1H-tetrazol-1-yl)propan-2-yl)oxy)-4-fluorophenyl)-N-(1-(cis-4-morpholinocyclohexyl)-3-(trifluoromethyl)-1H-pyrazol-4-yl)pyrimidin-2-amine] registered an IC50 of 10 to 100 nM.
As to `CCn1cc(Nc2ncc(-c3ccc(Cl)c(O[C@@H](C)Cn4cnnn4)c3)cn2)c(C(=O)O)n1` [Example 876, (S)-4-((5-(3-((1-(1H-tetrazol-1-yl)propan-2-yl)oxy)-4-chlorophenyl)pyrimidin-2-yl)amino)-1-ethyl-1H-pyrazole-3-carboxylic acid], the 50% inhibitory concentration (IC50) was 10 to 100 nM.
Take `Cc1ccc(-c2cnc(Nc3cn([C@H]4CC[C@H](N5CCOCC5)CC4)nc3OCC(F)(F)F)nc2)cc1O[C@@H](C)Cn1cnnn1` [Example 811, 5-(3-(((S)-1-(1H-tetrazol-1-yl)propan-2-yl)oxy)-4-methylphenyl)-N-(1-(trans-4-morpholinocyclohexyl)-3-(2,2,2-trifluoroethoxy)-1H-pyrazol-4-yl)pyrimidin-2-amine]: the IC50 is below 10 nM.

Still in this experiment, the particulars now being: Table 2; activity class for CaMKIIδ.
As to `Cc1c(Nc2ncc(-c3ccc(Cl)c(O[C@@H](C)Cn4cnnn4)c3)cn2)cnn1C` [Example 731, (S)-5-(3-((1-(1H-tetrazol-1-yl)propan-2-yl)oxy)-4-chlorophenyl)-N-(1,5-dimethyl-1H-pyrazol-4-yl)pyrimidin-2-amine], the IC50 fell in the range of 10 to 100 nM.
The compound `COc1cc(N2CCOC(CN(C)C)C2)ccc1Nc1ncc(-c2ccc(Cl)c(O[C@@H](C)Cn3cnnn3)c2)cn1` (stereo partly drawn) [Example 615, 5-(3-(((S)-1-(1H-tetrazol-1-yl)propan-2-yl)oxy)-4-chlorophenyl)-N-(4-(2-((dimethylamino)methyl)morpholino)-2-methoxyphenyl)pyrimidin-2-amine] returned an IC50 below 10 nM.
Consider `C[C@@H](Cn1cnnn1)Oc1cc(-c2cnc(Nc3cn(C4CCN(C5CCOCC5)CC4)nc3OC(F)F)nc2)ccc1Cl` [Example 664, (S)-5-(3-((1-(1H-tetrazol-1-yl)propan-2-yl)oxy)-4-chlorophenyl)-N-(3-(difluoromethoxy)-1-(1-(tetrahydro-2H-pyran-4-yl)piperidin-4-yl)-1H-pyrazol-4-yl)pyrimidin-2-amine], for which the IC50 is below 10 nM.
Compound `COc1cc(N2CCN(CC3COC3)CC2)ncc1Nc1ncc(-c2ccc(Cl)c(O[C@@H](C)Cn3cnnn3)c2)cn1` [Example 652, (S)-5-(3-((1-(1H-tetrazol-1-yl)propan-2-yl)oxy)-4-chlorophenyl)-N-(4-methoxy-6-(4-(oxetan-3-ylmethyl)piperazin-1-yl)pyridin-3-yl)pyrimidin-2-amine] had an IC50 of 10 to 100 nM.
The same measure, in the same setting: for `COc1ccc(C(=O)N2CCN(CC3CC3)CC2)cc1Nc1ncc(-c2ccc(Cl)c(O[C@@H](C)Cn3cnnn3)c2)cn1` [Example 681, (S)-(3-((5-(3-((1-(1H-tetrazol-1-yl)propan-2-yl)oxy)-4-chlorophenyl)pyrimidin-2-yl)amino)-4-methoxyphenyl) (4-(cyclopropylmethyl)piperazin-1-yl)methanone] the value was below 10 nM.
